Tests used:
[1] = test system: interferon-stimulated responsive elements (ISRE); assay: Activation of ISRE promoter elements by conditioned media from PBMC (HEK-ISREluc); format: cell-based, human; design: unit not given here; settings: compound applied to PBMCs, supernatant transferred to HEK-ISREluc cells, 24 hours
Method: The potential of compounds to induce IFN-I was also evaluated by measuring the activation of interferon-stimulated responsive elements (ISRE) by conditioned media from PBMC. The ISRE element of sequence GAAACTGAAACT is highly responsive to the STAT1-STAT2-IRF9 transcription factor, activated upon binding of IFN-I to their receptor IFNAR (Clontech, PT3372-5W). The plasmid pISRE-Luc from Clontech (ref. 631913) contains 5 copies of this ISRE element, followed by the firefly luciferase ORF. A HEK293 cell line stably transfected with pISRE-Luc (HEK-ISREluc) was established to profile of the conditioned PBMC cell culture media.
Briefly, PBMCs were prepared from buffy coats of at least two donors using a standard Ficoll centrifugation protocol. Isolated PBMCs were resuspended in RPMI medium supplemented with 10% human AB serum and 2×10^5 cells/well were dispensed into 384-well plates containing compounds (70 μL total volume). After overnight incubation, 10 μL of supernatant was transferred to 384-well plates containing 5×10^3 HEK-ISREluc cells/well in 30 μL (plated the day before). Following 24 hours of incubation, activation of the ISRE elements was measured by assaying luciferase activity using 40 μL/well Steady Lite Plus substrate (Perkin Elmer) and measured with ViewLux ultraHTS microplate imager (Perkin Elmer). The stimulating activity of each compound on the HEK-ISREluc cells was reported as LEC value, defined as the compound concentration applied to the PBMCs resulting in a luciferase activity at least two fold above the standard deviation of the assay. The LEC in turn indicates the degree of ISRE activation on transfer of a defined amount of PBMC culture medium. Recombinant interferon α-2a (Roferon-A) was used as a standard control compound.

human TLR8 = target: T1, human TLR8 (Homo sapiens, UniProt Q9NR97); assay: TLR8 wild type NFκB-luc cellular reporter assay; format: cell-based; design: unit not given here; settings: HEK293 NFκB-luc reporter, 6 hours incubation; for TLR8-wt (LEC): second part of table
T1 construct: expressed in transfected cells; host or cells: HEK293
T1 sequence (Q9NR97 27-1041): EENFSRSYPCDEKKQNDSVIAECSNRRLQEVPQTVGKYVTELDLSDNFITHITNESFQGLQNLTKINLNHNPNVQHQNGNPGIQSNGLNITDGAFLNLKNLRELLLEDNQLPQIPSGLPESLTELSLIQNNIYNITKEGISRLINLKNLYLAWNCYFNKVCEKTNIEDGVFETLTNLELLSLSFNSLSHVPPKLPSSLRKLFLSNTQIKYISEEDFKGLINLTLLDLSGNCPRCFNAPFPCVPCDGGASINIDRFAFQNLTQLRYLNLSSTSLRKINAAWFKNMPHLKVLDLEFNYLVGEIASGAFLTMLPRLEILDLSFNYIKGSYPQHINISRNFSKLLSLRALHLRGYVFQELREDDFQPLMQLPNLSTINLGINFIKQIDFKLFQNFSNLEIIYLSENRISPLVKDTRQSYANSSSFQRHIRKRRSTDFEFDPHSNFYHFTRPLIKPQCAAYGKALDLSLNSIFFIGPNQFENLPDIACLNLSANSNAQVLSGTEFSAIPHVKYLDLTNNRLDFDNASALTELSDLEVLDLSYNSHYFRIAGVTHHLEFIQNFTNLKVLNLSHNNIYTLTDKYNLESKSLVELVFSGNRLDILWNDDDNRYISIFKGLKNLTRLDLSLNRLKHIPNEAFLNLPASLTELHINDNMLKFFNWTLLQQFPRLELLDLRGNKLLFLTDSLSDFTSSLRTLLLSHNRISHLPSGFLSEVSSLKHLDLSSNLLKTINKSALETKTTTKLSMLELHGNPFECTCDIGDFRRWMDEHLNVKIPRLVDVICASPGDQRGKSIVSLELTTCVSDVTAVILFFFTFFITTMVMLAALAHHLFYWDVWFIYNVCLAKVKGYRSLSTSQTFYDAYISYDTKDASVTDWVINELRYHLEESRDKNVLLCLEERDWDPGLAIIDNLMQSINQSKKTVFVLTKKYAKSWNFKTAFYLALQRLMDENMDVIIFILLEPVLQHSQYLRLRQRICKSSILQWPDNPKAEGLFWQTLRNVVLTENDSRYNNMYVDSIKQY
Method: The ability of compounds to activate human TLR7 and/or TLR8 was assessed in a cellular reporter assay using HEK293 cells transiently transfected with a TLR7 or TLR8 expression vector and NFκB-luc reporter construct. In one instance the TLR expression construct expresses the respective wild type sequence or a mutant sequence comprising a deletion in the second leucine-rich repeat of the TLR.
Briefly, HEK293 cells were grown in culture medium (DMEM supplemented with 10% FCS and 2 mM Glutamine). For transfection of cells in 10 cm dishes, cells were detached with Trypsin-EDTA, transfected with a mix of CMV-TLR7 or TLR8 plasmid (750 ng), NFκB-luc plasmid (375 ng) and a transfection reagent and incubated 24 hours at 37° C. in a humidified 5% CO2 atmosphere. Transfected cells were then detached with Trypsin-EDTA, washed in PBS and resuspended in medium to a density of 1.67×10^5 cells/mL. Thirty microliters of cells were then dispensed into each well in 384-well plates, where 10 μL of compound in 4% DMSO was already present. Following 6 hours incubation at 37° C., 5% CO2, the luciferase activity was determined by adding 15 μl of Steady Lite Plus substrate (Perkin Elmer) to each well and readout performed on a ViewLux ultraHTS microplate imager (Perkin Elmer). Dose response curves were generated from measurements performed in quadruplicates. Lowest effective concentrations (LEC) values, defined as the concentration that induces an effect which is at least two fold above the standard deviation of the assay, were determined for each compound.

SMILES	HEK-ISRE luc (LEC) [1]	TLR8-wt (LEC) (human TLR8)	TLR8-wt_LEC (human TLR8)
CCCC[C@@H](CCO)Nc1nc(N)nc2ccc(OC)cc12 [Compound 88]	0.88	2.81	
CCCCNc1nc(N)nc2cccc(OC)c12 [Compound 9]	0.10	0.13	
CCC[C@@H](CO)Nc1nc(N)nc2cc(Cl)ccc12 [Compound 70]	0.01	0.01	
CCCCNc1nc(N)nc2cccc(OCCOC)c12 [Compound 11]	0.12	0.17	
CCC[C@@H](CO)Nc1nc(N)nc2c(Cl)cccc12 [Compound 69]	0.73	0.38	
CCC[C@@H](CO)Nc1nc(N)nc2c(F)cccc12 [Compound 47]	0.05	0.03	
CCCCNc1nc(N)nc2ccc(Br)cc12 [Compound 85]	0.21	0.10	
CCCCNc1nc(N)nc2cc(CO)ccc12 [Compound 18]	0.05	0.13	
CCC[C@@H](CCO)Nc1nc(N)nc2ccc(C(C)C)cc12 [Compound 26]	3.07	1.97	
CCC[C@@H](CO)Nc1nc(N)nc2cc(OC)ccc12 [Compound 56]	0.09	0.04	
CCC[C@@H](CCO)Nc1nc(N)nc2cc(C)ccc12 [Compound 53]	0.02	0.05	
CCCCNc1nc(N)nc2ccc(CO)cc12 [Compound 24]	0.14	0.22	
CCC[C@@H](CCO)Nc1nc(N)nc2ccc(CC)cc12 [Compound 25]	0.16	0.45	
CCC[C@@H](CCO)Nc1nc(N)nc2cccc(F)c12 [Compound 66]	0.06	0.02	
CCC[C@@H](CO)Nc1nc(N)nc2cc(C(=O)OC)ccc12 [Compound 86]	0.28	0.22	
CCC[C@@H](CCO)Nc1nc(N)nc2ccc(OC)cc12 [Compound 79]	2.07	2.97	
CCCCNc1nc(N)nc2cc(OC)ccc12 [Compound 39]	0.15	0.31	
CCC[C@@H](CO)Nc1nc(N)nc2cc(C)ccc12 [Compound 44]	0.09	0.03	
CCC[C@@H](CCO)Nc1nc(N)nc2ccc(Oc3ccc(C(F)(F)F)cc3Cl)cc12 [Compound 27]	14.21	>25	

SMILES	HEK-ISRE luc (LEC) [1]	TLR8-wt (LEC) (human TLR8)	TLR8-wt_LEC (human TLR8)
CCCC[C@@H](CCO)Nc1nc(N)nc2cc(OC)c(OC)cc12 [Compound 3]			5.5
CCC[C@@H](CO)Nc1nc(N)nc2cccc(F)c12 [Compound 50]	0.01	0.00	
CCCC[C@@H](CO)Nc1nc(N)nc2cc(OC)ccc12 [Compound 76]	0.09	0.04	
CCC[C@@H](CCO)Nc1nc(N)nc2ccc(C)cc12 [Compound 54]	0.18	0.43	
CCC[C@@H](CO)Nc1nc(N)nc2ccc(F)cc12 [Compound 49]	0.13	0.03	
CCCC[C@@H](CO)Nc1nc(N)nc2ccc(F)cc12 [Compound 61]	0.12	0.05	
CCCCNc1nc(N)nc2cc(Cl)c3c(c12)OCCO3 [Compound 28]	1.11	0.88	
CCCCNc1nc(N)nc2cc(F)c(F)cc12 [Compound 42]	0.26	0.14	
CCC[C@@H](CO)Nc1nc(N)nc2ccc(CO)cc12 [Compound 34]	0.39	0.27	
CCCC[C@@H](CCO)Nc1nc(N)nc2cc(C)ccc12 [Compound 73]	0.02	0.06	
C#CCOc1cccc2nc(N)nc(NCCCC)c12 [Compound 30]	0.04	0.10	
CCCC[C@@H](CCO)Nc1nc(N)nc2cc(OC)ccc12 [Compound 87]	0.04	0.16	
CCCCNc1nc(N)nc2cc(OC)c(OCc3ccccc3)cc12 [Compound 89]	>24	2.22	
CCCC[C@@H](CCO)Nc1nc(N)nc2cccc(C)c12 [Compound 75]	0.02	0.06	
CC[C@H](C)[C@@H](CO)Nc1nc(N)nc2c(F)cccc12 [Compound 67]	0.21	0.11	
CCCCNc1nc(N)nc2cc(C(=O)OC)ccc12 [Compound 17]	0.75	1.66	
CCCC[C@@H](CO)Nc1nc(N)nc2cccc(C)c12 [Compound 52]	0.03	0.03	
CC[C@H](C)[C@@H](CO)Nc1nc(N)nc2ccc(OC)cc12 [Compound 80]	>24	4.10	
CCCCNc1nc(N)nc2cc(OC)c(OC)cc12 [Compound 1]			1.1

— patent US8916575B2, “Quinazoline derivatives for the treatment of viral infections and further diseases” (Janssen R&D Ireland, priority 2011, dated 2014)
